# ± gives the standard deviation of the reports.
row,Structure (SMILES),glass transition temperature [°C]
1,*CC(*)(C)C(=O)OCCCCCCCCCC (repeat unit) [Poly(decyl methacrylate)],-63.83 ± 1
2,*CC(*)(C)C(=O)Oc1ccc(OCc2ccccc2)cc1 (repeat unit),95.30
3,*CCCCCCCCCCC(=O)N(*)C (repeat unit),-12.00
4,*OC(COc1ccccc1)CC(*)=O (repeat unit),20.00
5,*C(=O)c1cccc(C(=O)N(*)c2ccccc2)c1 (repeat unit),148.00
6,*c1nc2cc(S(=O)(=O)c3ccc4oc(C5CCC(*)CC5)nc4c3)ccc2o1 (repeat unit),296.00
7,*C1C2CC(C(=O)OCCc3ccc(N(c4ccccc4)c4ccccc4)cc3)C(C2)C1* (repeat unit),307.00
8,*CC(*)CCCCCCCCCCCCCC (repeat unit),-24.00
9,*CCCOc1cccc(C(=O)OC(=O)c2cccc(O*)c2)c1 (repeat unit),53.00
10,*Oc1ccc(C2(c3ccc(OC(=O)OC4C(C)(C)C(OC(*)=O)C4(C)C)cc3)CC3CCC2C3)cc1 (repeat unit),184.00
11,*c1ccc(Oc2ccc(-c3ccc(Oc4ccc(N5C(=O)c6ccc(Oc7ccc(C(C)(C)c8ccc(Oc9ccc%10c(c9)C(=O)N(*)C%10=O)cc8)cc7)cc6C5=O)cc4)cc3)cc2)cc1 (repeat unit),220.00
12,*Oc1cc(C)cc(OC(=O)c2cccc(C(*)=O)c2)c1 (repeat unit),163.00
13,*O[Si](*)(C)CCC(F)(F)F (repeat unit),-69.00
14,*CC(C)C(=O)O* (repeat unit),-25.00
15,*CCCCCCCCCCOc1ccc(N(c2ccccc2)c2ccc(-c3ccc(N(c4ccccc4)c4ccc(O*)cc4)cc3)cc2)cc1 (repeat unit),90.00
16,*Oc1ccc(C(C)(C)c2ccc(OC(=O)CCCCC(*)=O)cc2)cc1 (repeat unit),54.00
17,*CCCCCCCCCCCCNC(=O)CCCCCCCCCCCCC(=O)N* (repeat unit),49.00
18,*CC(OCC)C1(C)C(=O)OC(=O)C1(*)C (repeat unit),244.00

row,Structure (SMILES),glass transition temperature [°C]
1,*CCCOC(=O)CCCC(=O)O* (repeat unit),-33.00
2,*OP(=O)(Oc1ccc(C(C)(C)c2ccc(*)cc2)cc1)Oc1c(Cl)cc(Cl)cc1Cl (repeat unit),94.00
3,*c1cc(OCCCCCCCCCCCCCCCC)cc(N2C(=O)c3ccc(Oc4ccc5c(c4)C(=O)N(*)C5=O)cc3C2=O)c1 (repeat unit),159.00
4,*CC(*)(C)C(=O)OCCCCCCOc1ccc(/N=N/c2ccc([N+](=O)[O-])cc2)cc1 (repeat unit),108.00
5,*CCCCCCCCCCC(=O)Oc1ccc2cc(OC(=O)CCCCCCCCCCn3c(=O)c4cc5c(=O)n(*)c(=O)c5cc4c3=O)ccc2c1 (repeat unit),66.00
6,*CC(*)OC(=O)C(C)(C)C(C)(C)CC (repeat unit),90.00
7,*c1ccc2c(c1)C(=O)N(c1cccc(C(F)(F)C(F)(F)C(F)(F)c3cccc(N4C(=O)c5ccc(C(F)(F)C(F)(F)C(F)(F)C(F)(F)C(F)(F)C(F)(F)C(*)(F)F)cc5C4=O)c3)c1)C2=O (repeat unit),133.50
8,*/C=C(/*)C(CCC)[Si](C)(C)c1ccccc1 (repeat unit),110.00
9,*c1ccc(Oc2ccc(-c3ccc(Oc4ccc(N5C(=O)c6cccc(Oc7c(Oc8cccc9c8C(=O)N(*)C9=O)cc(C(C)(C)C)cc7C(C)(C)C)c6C5=O)cc4)cc3)cc2)cc1 (repeat unit),237.00
10,*Cc1ccc(CNC(=O)CCCCCCCCC(=O)N*)cc1 (repeat unit),115.00
11,*CCOCCC(=O)O* (repeat unit),-35.00
12,*Oc1cc(CC)cc(OC(=O)c2cccc(C(*)=O)c2)c1 (repeat unit),138.00
13,*Oc1ccc(C(=O)OCCN(CCOC(=O)c2ccc(OC3(F)C(*)(F)C(F)(F)C3(F)F)cc2)c2ccc(/C=C/C3=CC(=C(C#N)C#N)CC(C)(C)C3)cc2)cc1 (repeat unit),143.00
14,*CCCCCCOC(=O)c1cc(OCCCCCCOc2ccc(/N=N/c3ccc(C#N)cc3)cc2)cc(C(=O)OCCCCCCN2C(=O)c3ccc(-c4ccc(-c5ccc6c(c5)C(=O)N(*)C6=O)cc4)cc3C2=O)c1 (repeat unit),67.00
15,*CC(*)(C)C(=O)Oc1cc(C)ccc1C (repeat unit),111.00
16,*CCCCOc1cccc(C(=O)OC(=O)c2cccc(O*)c2)c1 (repeat unit),20.00
17,*CC(*)(F)F (repeat unit) [Poly(vinylidene fluoride)],-32.77 ± 2.3
18,*CCC1C(=O)N(CCCCCCCCCCCCCCCC)C(=O)C1* (repeat unit),65.60

# Continued, values first:
row,glass transition temperature [°C],Structure (SMILES)
1,130.00,*C(=O)Nc1cccc(N2C(=O)CC(N3C(=O)c4ccc(*)cc4C3=O)C2=O)c1 (repeat unit)
2,208.00,*c1ccc(Oc2cccc(Oc3ccc(N4C(=O)c5ccc(Oc6cc7ccccc7cc6Oc6ccc7c(c6)C(=O)N(*)C7=O)cc5C4=O)cc3)c2)cc1 (repeat unit)
3,68.00,*O[Si](C)(C)CCCC(=O)Oc1ccc(/C=N/c2ccc(Cc3ccc(/N=C/c4ccc(OC(=O)CCC[Si](*)(C)C)cc4)cc3)cc2)cc1 (repeat unit)
4,300.00,*Nc1ccc(C(=O)Nc2ccc(Cc3ccc(NC(=O)c4ccc(NC(=O)c5ccc([Si](C)(C)c6ccc(C(*)=O)cc6)cc5)cc4)cc3)cc2)cc1 (repeat unit)
5,280.00,*Oc1ccc(S(=O)(=O)c2ccc3cc(S(=O)(=O)c4ccc(Oc5c(C)cc(-c6cc(C)c(*)c(C)c6)cc5C)cc4)ccc3c2)cc1 (repeat unit)
6,238.00,*Nc1cccc(NC(=O)c2ccc(C(*)=O)cc2)c1 (repeat unit)
7,168.00,*Nc1cc(NC(=O)c2cc(OCCCN(C)c3ccc(/N=N/c4ccc(S(C)(=O)=O)cc4)cc3)cc(C(*)=O)c2)cc(C(=O)OCCCN(C)c2ccc(/N=N/c3ccc(S(C)(=O)=O)cc3)cc2)c1 (repeat unit)
8,234.1,*c1ccc(Sc2ccc(Sc3ccc(Sc4ccc(-n5c(=O)c6cc7c(=O)n(*)c(=O)c7cc6c5=O)cc4)cc3)cc2)cc1 (repeat unit)
9,159.00,*Oc1cccc(OC(=O)c2ccc(Oc3ccc(C(*)=O)cc3)cc2)c1 (repeat unit)
10,329.00,*c1ccc(Nc2nc(Nc3ccc(-c4nc5cc(-c6ccc7[nH]c(*)nc7c6)ccc5[nH]4)cc3)nc(N(c3ccccc3)c3ccccc3)n2)cc1 (repeat unit)
11,229.00,*c1ccc(Oc2c(C)cc(C(c3cccnc3)c3cc(C)c(Oc4ccc(N5C(=O)CC(Nc6ccc(NC7CC(=O)N(*)C7=O)cc6)C5=O)cc4)c(C)c3)cc2C)cc1 (repeat unit)
12,201.00,*c1ccc(Oc2ccc(C(=O)c3ccc(Oc4ccc(N5C(=O)c6ccc(Oc7cccc(Oc8ccc9c(c8)C(=O)N(*)C9=O)c7)cc6C5=O)cc4)cc3)cc2)cc1 (repeat unit)
13,360.00,*c1ccc(-c2ccc(-c3cc(-c4ccccc4)c4cc(-c5ccc6nc(*)cc(-c7ccccc7)c6c5)ccc4n3)cc2)cc1 (repeat unit)
14,260.00,*c1ccc(Oc2ccc(C(=O)c3ccc(Oc4ccc(-c5c6c(c(*)c7ccccc57)C(=O)N(c5ccccc5C(F)(F)F)C6=O)cc4)cc3)cc2)cc1 (repeat unit)
15,190.50,*c1ccc(Oc2ccc(N3C(=O)c4ccc([Si](C)(C)O[Si](C)(C)c5ccc6c(c5)C(=O)N(c5ccc(Oc7ccc(-c8nnc(*)o8)cc7)cc5)C6=O)cc4C3=O)cc2)cc1 (repeat unit)
16,248.70,*c1ccc(NC(=O)Nc2ccc(NC(=O)Nc3ccc(-c4nc(C#N)c(C#N)nc4*)cc3)cc2)cc1 (repeat unit)
17,182.00,*Oc1ccc(-c2ccc(-c3ccc(Oc4ccc(C(C)(C)c5ccc(*)cc5)cc4)cc3)cc2)cc1 (repeat unit)
18,199.00,*c1ccc(C(c2ccccc2)c2ccc(N(*)c3ccc(C)cc3)cc2)cc1 (repeat unit)
19,275.00,*c1ccc(Oc2cccc(NC(=O)c3cc(C(=O)Nc4cccc(Oc5ccc(-c6nnc(*)o6)cc5)c4)cc(N4C(=O)c5c(Cl)c(Cl)c(Cl)c(Cl)c5C4=O)c3)c2)cc1 (repeat unit)
20,294.50,*Oc1ccc(NC(=O)c2cc(NC(=O)c3ccccc3)cc(C(=O)Nc3ccc(*)cc3)c2)cc1 (repeat unit)
21,153.00,*CC(*)(Cl)C(=O)OCCOc1ccc(C(=O)Oc2ccc(OCCCC)cc2)cc1 (repeat unit)
22,263.00,*Oc1ccc(S(=O)(=O)c2ccc(Oc3ccc(NC(=O)c4cc(NC(=O)c5ccc(OC(C)=O)cc5)cc(C(=O)Nc5ccc(*)cc5)c4)cc3)cc2)cc1 (repeat unit)
23,50.00,*CCCCCCCCCCOC(=O)c1ccc(-c2ccc(-c3ccc(C(=O)O*)cc3)cc2)cc1 (repeat unit)
24,134.00,*CC1CCC(COC(=O)Nc2ccc(Cc3ccc(NC(=O)O*)cc3)cc2)CC1 (repeat unit)
25,150.50,*Oc1ccc(Oc2ccc(Oc3ccc(C(=O)c4ccc(*)cc4)cc3)cc2)cc1 (repeat unit)
26,243.00,*c1ccc(-c2ccc(-n3c(-c4ccc(Oc5ccc(C(=O)c6ccc(Oc7ccc(C(=O)c8ccc(Oc9ccc(-c%10nc%11ccccc%11n%10*)cc9)cc8)cc7)cc6)cc5)cc4)nc4ccccc43)cc2)cc1 (repeat unit)
27,265.50,*C(=O)c1ccc2c(c1)C(=O)N(c1cccc(Cc3ccc(C(=O)c4cccc(N5C(=O)c6ccc(*)cc6C5=O)c4)cc3)c1)C2=O (repeat unit)
28,178.50,*Oc1ccc(C(c2ccc(Oc3ccc(C(=O)c4ccccc4-c4ccccc4C(=O)c4ccc(*)cc4)cc3)cc2)(C(F)(F)F)C(F)(F)F)cc1 (repeat unit)

# Source: the PolyMetriX glass transition set
